pEC50, pIC50: −log10 of the molar value.
Columns and labels:
[1] = test system: CHIKV strain of La Réunion outbreak (LR2006-OPY1) with GFP modification in 5′; experiment: microbe, parasite or virus in culture; type: cell-based, Chikungunya virus; conditions: infected HEK293T cells; for inhibition at 1 µM / pIC50: Chikungunya virus, HEK-293T; for inhibition at 1 µM: compounds at 1 μM, MOI 0.1, 22 h, values above 100 lowered to 100, read-out: % CHIKV Inhibition Mean (n = 2); for pIC50: second round of experiments
Procedure: The ability of the compounds to inhibit viral replication was assessed with an experiment in which infected cells were treated by compounds of formula (Ic) at 1 μM. As a positive control for inhibition of Chikungunya, Ribavirin was used. Toxicity of the compounds was assessed in parallel.
Human embryonic kidney cells 293T (HEK293T, CRL-11268) were maintained in Dulbecco's modified Eagle's Medium (DMEM, 31966-021, Thermo Fisher Scientific) supplemented with 10% of fetal bovine serum (FBS), penicillin and streptomycin. After removal of the medium, cells were washed with Ca^2+ and Mg^2+-free salt solution to remove all traces of serum. After aspiration of wash solution, cells were dissociated with 0.25% Trypsin-EDTA solution and incubated 30 s at least in 37° C. incubator. Concentration of cell suspension was determined by an automatic cell counter (EVE, NanoEntek) and, if needed, adjusted to 0.33×10^6 cells/mL with DMEM medium supplemented with 10% FBS.
100 μL of the cell suspension were dispatched in a ViewPlate-96 Black (6005182, PerkinElmer) and in a transparent 96-well cell culture plate (655180, Greiner bio-one). After an incubation for 24 h at 37° C. under 5% of CO2, compounds were added at the proper concentration.
An intermediate dilution was prepared with DMSO (D8418, Sigma) at 2 mM in a 96-well V-bottom microplate from the stock solution:
An intermediate dilution was prepared with DMSO (D8418, Sigma) at 25 mM in a 96-well V-bottom microplate from the stock solution:
Perform serial dilution in 2 μL of DMSO 13 times to reach 0.0015 mM. Proceed as follows in table III:
For both screen and determination of IC50, 1 μL of each solution was added in a 1 mL Masterblock 96 wells (Greiner bio-one, 780261) containing 1 mL of DMEM medium. As a positive control, 5 μL of a 80 mM Ribavirin solution (R9644, Sigma) is added to 1 mL of DMEM. On the other hand, DMSO is used as a negative control.
[…]. Vector Borne Zoonotic Dis. 2006; 6 (4)). This modified virus was used to infect cells at MOI 0.1. […].
Medium was removed after 22 h at 37° C. under 5% of CO2 and cells were washed as described above. 60 μL of RIPA buffer (50 mM Tris-HCl pH8, 100 mM NaCl, 1 mM MgCl2, 1% Triton X-100) was added to cells and incubated for at least 20 min before reading fluorescence signal. Pierce 660 nm Protein Assay Reagent (22660, Thermo scientific) was used to normalize fluorescence signal by protein quantity.
• A first round of experiments has been performed wherein the results are expressed as inhibition percentage, which is calculated as follows, through the following steps: • 1. Fluorescence intensity (FI)/Absorbance 660 nm (A660)=A • This ratio allows considering the infection (GFP virus) to the protein amount. • 2. A′=A−background noise of non-infected plate, • 3. B=Fluorescence intensity (FI)/Absorbance 660 nm (A660) of infected but non treated plates, • 4. C=A′/B, which is then converted as the percentage of infection after treatment, compared to non-treated sample, and subsequently as the infection percentage. For instance, a value of 100 in Table IV here below means that, after treatment, the signal attributed to GFP fluorescence is abolished, which is correlated to the absence of infection. • 5. C′=100-C
This value corresponds to the inhibition's percentage.
The following Table IV encompasses said C′ value for some compounds, as calculated above with a mean of 2 experiments, and corresponding standard deviation.
Some values were originally above 100. In these cases, the value has been lowered to 100. This means that some molecules also have an impact on the viability of the cells. In other words, the A value may be lower than the background noise.
Moreover, for each measure, the test was performed with Ribavirin as control. The value of the inhibition percentage was checked, giving 100%.

RSV A2 = experiment: RSV inhibition (cytopathic effect) in HEp-2 cells using Viral ToxGlo assay; type: cell-based; conditions: human respiratory syncytial virus; RSV A2, HEp-2 cells, MOI 0.5, 72 h p.i.
Procedure, shortened: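 HEp-2 cells seeded overnight, then given compounds (≤1% DMSO final) in 2% FBS EMEM and infected right away with RSV A2 at MOI 0.5; uninfected wells used for cytotoxicity. After 72 h p.i. at 37 °C/5% CO2, cytopathic effect read by Viral ToxGlo luminescence after 20 min at room temperature.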

Row | Compound | inhibition percentage (Ribavirin positive control) ([1]; Ribavirin as control in each measure) | inhibition at 1 µM [1] | pIC50 [1] | pEC50 (RSV A2)
1 | NC(=O)c1ncn([C@@H]2O[C@H](CO)[C@@H](O)[C@H]2O)n1 [Ribavirin, reference compound] | 100% | – | – | –
2 | O=C(N=C1NCCCN1)c1ccc(Nc2cccc(C(=O)NCCC3CCC3)c2)cc1 [compound 26, N-(2-cyclobutylethyl)-3-((4-((tetrahydropyrimidin-2(1H)-ylidene)carbamoyl)phenyl)amino)benzamide] | – | 97% | – | –
3 | CC(C)CCNC(=O)c1cccc(Nc2ccc(C(=O)N=C3NCCCN3)cc2)c1 [compound 23, N-isopentyl-3-((4-((tetrahydropyrimidin-2(1H)-ylidene)carbamoyl)phenyl)amino)benzamide] | – | 98% | 6.40 to 7.00 | –
4 | O=C(N=C1NCCCN1)c1ccc(Nc2cccc(C(=O)NCCC3CCCC3)c2)cc1 [compound 22, N-(2-cyclopentylethyl)-3-((4-((tetrahydropyrimidin-2(1H)-ylidene)carbamoyl)phenyl)amino)benzamide] | – | 94% | 6.40 to 7.00 | –
5 | Cc1cc(C(=O)N=C2NCCCN2)ccc1Nc1cccc(C(=O)NCCC2CCCC2)c1 [compound 28, 4-((3-((2-cyclopentylethyl)carbamoyl)phenyl)amino)-3-methyl-N-(tetrahydropyrimidin-2(1H)-ylidene)benzamide] | – | 97% | – | 6.51
6 | O=C(N=C1NCCCN1)c1ccc(Nc2cccc(C(=O)NCCC3CCCCC3)c2)cc1 [compound 24, N-(2-cyclohexylethyl)-3-((4-((tetrahydropyrimidin-2(1H)-ylidene)carbamoyl)phenyl)amino)benzamide] | – | 100% | 6.40 to 7.00 | –
7 | O=C1CCN/C(=N\C(=O)c2ccc(Nc3cccc(C(=O)NC4CC4)c3)c(C3CC3)c2)N1 [compound 145, 3-cyclopropyl-4-{[3-(cyclopropylcarbamoyl)phenyl]amino}-N-[(2E)-4-oxo-1,3-diazinan-2-ylidene]benzamide] | – | – | – | 6.38
8 | Cc1c(N)cccc1Nc1ccc(C(=O)N=C2NCCCN2)cc1C1CC1 [compound 135, 4-[(3-amino-2-methylphenyl)amino]-3-cyclopropyl-N-(1,3-diazinan-2-ylidene)benzamide] | – | – | – | 6.54
9 | Cc1cc(C(=O)N=C2NCCCN2)ccc1Nc1cccc(C(=O)NCCC(C)C)c1 [compound 27, 4-((3-(isopentylcarbamoyl)phenyl)amino)-3-methyl-N-(tetrahydropyrimidin-2(1H)-ylidene)benzamide] | – | 96% | – | 6.44
10 | Cc1cc(C(=O)N=C2NCCCN2)ccc1Nc1cccc(OCCCC2CCCCC2)c1 [compound 156, 4-{[3-(3-cyclohexylpropoxy)phenyl]amino}-N-(1,3-diazinan-2-ylidene)-3-methylbenzamide] | – | – | – | 6.02
11 | CC(C)CCN(C)C(=O)c1cccc(Nc2ccc(C(=O)N=C3NCCCN3)cc2C2CC2)c1 [compound 118, 3-cyclopropyl-N-(1,3-diazinan-2-ylidene)-4-({3-[methyl(3-methylbutyl)carbamoyl]phenyl}amino)benzamide] | – | – | – | 6.90

Source: US12247018B2, “Aryl-n-aryl derivatives for treating a RNA virus infection” (ABIVAX, priority 2018, dated 2025)
